Results taken from US20240158370A1, “CK1 alpha AND DUAL CK1 alpha / GSPT1 DEGRADING COMPOUNDS” (Innovo Therapeutics, Inc., priority 2022, published 2024).

Key:
Assay type in all cases: cell-based
CK1α = biological target: T1, CK1α (Homo sapiens, UniProt P48729+Q96SW2); experiment: HiBiT degradation assay, CK1α, Procedure A; settings: six hours
T1 construct: CSNK1A1-HiBit KI HEK293(LgBit) Cells; host or cells: HEK293(LgBit) knock-in cells
Summary of the method: (§1)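 Six-hour treatment at 37° C, ten doses between 10 μM and 0.005 μM, then HiBiT lytic luminescence. Fitted DC50 and Ymin.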

Z-138 cells = experiment: Z-138 Proliferation Assay (Cell Titer-Glo); settings: 72 hours; for Ymin (%): % remaining (percent of DMSO control); for EC50: Homo sapiens, Cell Titer-Glo, 4-parameter curve fit
Protocol: Z-138 Proliferation Assay
Z-138 cells were cultured in IMDM Medium supplemented with 10% heat in-activated fetal bovine serum and 1% Penicillin-Streptomycin.
10 mM stocks of compound were made from fresh powder. DMSO was added to solid compound so that the final concentration was 10 mM. Compounds were vortexed and allowed to sit for 5 minutes to ensure complete solubility. Solvated compound was aliquoted into 1 ml Eppendorf tubes and stored in a −20° C. freezer.
Z-138 cells were maintained in culture using standard cell culturing techniques.
Cells were maintained at a density of 0.8×10^6 cells/ml.
Re-constitute cell titer-glo reagent according to manufacturer's protocol.
Z-138 cells were removed from culture and cell viability and density were determined using a CellDrop™ Automated Cell Counter with Tryphan blue stain according to manufacturer's protocols. Cells were centrifuged and resuspended using fresh media to a cell density of 0.1×10^6 cells/ml. […] 40 μl of cell suspension was added to the wells of a 384 well tissue culture plate (4,000 cells/well final). Upon completing the addition of the cells to the plate, the plates were centrifuged for 30 seconds at 300 rpms to help the cells settle and to bring air bubbles to the top of the wells. Air bubbles were popped using a pipette tip.
10-point dose response curves were performed using a D300e Digital Dispenser. The highest concentration of compound used in the assay was 10,000 nM. 1:2 dilutions were performed over a 10-point range with the final DMSO concentration being 0.1%. The cells were cultured for 72 hours in the presence of compound.
After 72 hours, the cell plates were removed from the incubator and allowed to equilibrate to room temperature (about 15 minutes). 20 μl of cell titer-glo reagent was added to each well of the 384 well plate. Incubated the plate for 30 minutes in the dark. After 30 minutes, ensured that there were no air bubbles in the plate (popped bubbles with pipette tip if necessary) and analyzed plate using a luminometer.
EC50 curves were generated using Prism Graph Pad. In brief, POCs (percent of control, compound/DMSO control×100) were plotted against the compound concentrations (log scale). EC50 curves were generated using a 4-parameter curve fit.

GSPT1 [1] = biological target: T2, GSPT1 (Homo sapiens, UniProt P15170+Q96SW2); experiment: HiBiT degradation assay, GSPT1, Procedure A; design: HiBit-GSPT1 KI HEK293(LgBit) Cells; host or cells: HEK293(LgBit) knock-in cells; settings: six hours
Summary of the method: as §1

GSPT1 [2] = biological target: T2, GSPT1; experiment: HiBiT degradation assay, GSPT1, Procedure B (Molt 4_hGSPT1_HiBIT cells); design: Molt 4_hGSPT1_HiBIT N-terminus tagged cells were generated using CRISPR technology; endogenous in cells; host or cells: Molt 4 cells, CRISPR-edited; settings: six hours
Summary of the method: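 CRISPR N-terminal HiBiT-tagged Molt 4 cells at 1×10^6 cells/ml were treated 6 h at 37° C with compounds (10-point, 10 μM to 0.005 μM, 0.1% DMSO). Remaining HiBiT-GSPT1 was read by lytic luminescence; DC50 and Ymin (% remaining) from a 4-parameter fit.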

T2 sequence (P15170 whole entry): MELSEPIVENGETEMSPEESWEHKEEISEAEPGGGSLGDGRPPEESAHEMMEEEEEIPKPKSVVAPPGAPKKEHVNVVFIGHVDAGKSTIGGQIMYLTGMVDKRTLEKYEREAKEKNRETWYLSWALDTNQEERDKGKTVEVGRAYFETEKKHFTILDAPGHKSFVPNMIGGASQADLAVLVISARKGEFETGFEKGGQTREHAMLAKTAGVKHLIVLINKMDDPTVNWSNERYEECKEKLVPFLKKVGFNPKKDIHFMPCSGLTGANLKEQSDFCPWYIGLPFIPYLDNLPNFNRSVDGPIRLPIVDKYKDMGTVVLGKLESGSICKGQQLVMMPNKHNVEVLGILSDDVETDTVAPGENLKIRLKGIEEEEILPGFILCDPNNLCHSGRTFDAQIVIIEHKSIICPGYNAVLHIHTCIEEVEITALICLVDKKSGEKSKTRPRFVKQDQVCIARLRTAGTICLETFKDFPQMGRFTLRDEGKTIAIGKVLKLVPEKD
T2 sequence (Q96SW2 whole entry): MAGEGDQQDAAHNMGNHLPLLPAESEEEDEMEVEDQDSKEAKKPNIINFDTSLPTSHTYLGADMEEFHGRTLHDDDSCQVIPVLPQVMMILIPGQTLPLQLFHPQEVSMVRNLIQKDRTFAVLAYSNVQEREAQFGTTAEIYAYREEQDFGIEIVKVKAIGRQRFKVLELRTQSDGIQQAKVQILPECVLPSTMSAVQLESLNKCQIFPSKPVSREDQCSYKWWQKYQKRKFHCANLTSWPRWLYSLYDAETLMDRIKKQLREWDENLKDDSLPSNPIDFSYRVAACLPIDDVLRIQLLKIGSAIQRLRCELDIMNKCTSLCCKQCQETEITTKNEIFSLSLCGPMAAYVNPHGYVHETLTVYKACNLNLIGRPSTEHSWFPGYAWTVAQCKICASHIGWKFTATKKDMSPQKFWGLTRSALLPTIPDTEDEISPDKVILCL
T2 sequence (Q16531 whole entry partner): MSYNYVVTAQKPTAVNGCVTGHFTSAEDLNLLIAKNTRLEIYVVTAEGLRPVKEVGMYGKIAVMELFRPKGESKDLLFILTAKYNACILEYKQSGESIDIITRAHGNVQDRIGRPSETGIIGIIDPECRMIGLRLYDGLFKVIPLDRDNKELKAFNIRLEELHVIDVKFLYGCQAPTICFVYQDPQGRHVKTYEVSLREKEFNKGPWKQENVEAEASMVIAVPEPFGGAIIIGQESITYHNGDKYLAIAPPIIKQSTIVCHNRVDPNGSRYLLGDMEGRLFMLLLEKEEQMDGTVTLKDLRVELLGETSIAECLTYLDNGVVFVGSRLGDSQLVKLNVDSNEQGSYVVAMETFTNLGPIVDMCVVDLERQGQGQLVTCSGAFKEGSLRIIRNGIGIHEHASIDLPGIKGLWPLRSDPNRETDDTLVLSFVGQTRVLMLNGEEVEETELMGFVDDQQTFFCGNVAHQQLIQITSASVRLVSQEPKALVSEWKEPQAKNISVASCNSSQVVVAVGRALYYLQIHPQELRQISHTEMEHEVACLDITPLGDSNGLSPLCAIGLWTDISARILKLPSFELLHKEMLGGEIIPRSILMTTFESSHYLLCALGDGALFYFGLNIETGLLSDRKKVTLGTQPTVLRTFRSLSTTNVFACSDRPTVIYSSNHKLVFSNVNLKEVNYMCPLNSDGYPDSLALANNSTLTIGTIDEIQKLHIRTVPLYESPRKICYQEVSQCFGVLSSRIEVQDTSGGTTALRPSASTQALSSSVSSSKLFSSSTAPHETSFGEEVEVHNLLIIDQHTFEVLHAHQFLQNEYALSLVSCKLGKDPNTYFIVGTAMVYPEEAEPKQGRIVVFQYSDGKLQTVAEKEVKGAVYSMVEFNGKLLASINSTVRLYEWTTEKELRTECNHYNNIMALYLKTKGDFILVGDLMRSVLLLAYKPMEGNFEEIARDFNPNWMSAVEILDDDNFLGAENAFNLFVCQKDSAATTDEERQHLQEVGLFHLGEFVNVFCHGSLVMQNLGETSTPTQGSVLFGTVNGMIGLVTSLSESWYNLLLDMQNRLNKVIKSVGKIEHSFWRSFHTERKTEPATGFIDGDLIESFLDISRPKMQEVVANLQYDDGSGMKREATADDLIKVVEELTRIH
T1 sequence (P48729 whole entry): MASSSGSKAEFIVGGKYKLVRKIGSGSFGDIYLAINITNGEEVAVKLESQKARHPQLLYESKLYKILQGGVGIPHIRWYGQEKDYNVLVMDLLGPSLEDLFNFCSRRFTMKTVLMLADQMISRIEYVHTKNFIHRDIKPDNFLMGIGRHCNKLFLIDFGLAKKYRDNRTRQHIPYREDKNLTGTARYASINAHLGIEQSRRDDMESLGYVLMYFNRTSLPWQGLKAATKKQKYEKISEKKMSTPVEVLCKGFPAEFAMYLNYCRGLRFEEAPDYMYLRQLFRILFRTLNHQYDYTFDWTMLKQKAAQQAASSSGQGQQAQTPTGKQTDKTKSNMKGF
T1 sequence (Q96SW2 whole entry): as the sequence (Q96SW2 whole entry) above
T1 sequence (Q16531 whole entry partner): as the sequence (Q16531 whole entry partner) above

| Structure (SMILES) | CK1α Ymin (CK1α) | DC50 (CK1α) | Ymin (%) (Z-138 cells) | EC50 (Z-138 cells) | DC50 (GSPT1 [1]) | GSPT1 Ymin (GSPT1 [1]) | DC50 (GSPT1 [2]) | GSPT1 Ymin (GSPT1 [2]) |
| --- | --- | --- | --- | --- | --- | --- | --- | --- |
| Cn1ncc(-c2ccc3c(c2)CN(C2CCC(=O)NC2=O)C3=O)c1C1CCCCC1 (stereo not drawn) [Example 588] | E (E = >25-75% remaining) | < 25 nM | F (>25-50% remaining) | 10 to 100 nM | ≥ 25 nM | F (F = >75-100% remaining) | – | – |
| Cn1cnc(-c2ccc3c(c2)CN(C2CCC(=O)NC2=O)C3=O)c1C1CCCCC1 (stereo not drawn) [Example 594] | C (C = 0-10% remaining) | < 25 nM | D (0-10% remaining) | < 10 nM | < 25 nM | E (E = >25-75% remaining) | – | – |
| Cn1nc(-c2ccc3c(c2)CN(C2CCC(=O)NC2=O)C3=O)nc1C1CCC(F)(F)CC1 (stereo not drawn) [Example 606, 3-(5-(5-(4,4-difluorocyclohexyl)-1-methyl-1H-1,2,4-triazol-3-yl)-1-oxoisoindolin-2-yl)piperidine-2,6-dione] | E (E = >25-75% remaining) | ≥ 25 nM | F (>25-50% remaining) | 10 to 100 nM | ≥ 25 nM | F (F = >75-100% remaining) | – | – |
| Cn1nc(-c2ccc3c(c2)CN(C2CCC(=O)NC2=O)C3=O)nc1C1CCCCC1 (stereo not drawn) [Example 614, 3-(5-(5-cyclohexyl-1-methyl-1H-1,2,4-triazol-3-yl)-1-oxoisoindolin-2-yl)piperidine-2,6-dione] | D (D = >10- 25% remaining) | ≥ 25 nM | F (>25-50% remaining) | 10 to 100 nM | ≥ 25 nM | F (F = >75-100% remaining) | – | – |
| Cc1c(-c2ccc3c(c2)CN(C2CCC(=O)NC2=O)C3=O)nc(C2CCOCC2)n1C (stereo not drawn) [Example 615, 3-(5-(1,5-dimethyl-2-(tetrahydro-2H-pyran-4-yl)-1H-imidazol-4-yl)-1-oxoisoindolin-2-yl)piperidine-2,6-dione] | C (C = 0-10% remaining) | < 25 nM | E (>10-25% remaining) | 10 to 100 nM | < 25 nM | F (F = >75-100% remaining) | – | – |
| Cn1nc(-c2ccc3c(c2)CN(C2CCC(=O)NC2=O)C3=O)nc1-c1ccc(C(F)(F)F)cc1 (stereo not drawn) [Example 619, 3-(5-(1-methyl-5-(4-(trifluoromethyl)phenyl)-1H-1,2,4-triazol-3-yl)-1-oxoisoindolin-2-yl)piperidine-2,6-dione] | E (E = >25-75% remaining) | < 25 nM | F (>25-50% remaining) | 10 to 100 nM | ≥ 25 nM | F (F = >75-100% remaining) | – | – |
| O=C1CCC(N2Cc3cc(-c4cc(-c5ccccc5)n(C5CC5)n4)ccc3C2=O)C(=O)N1 (stereo not drawn) [Example 621, 3-(5-(1-cyclopropyl-5-phenyl-1H-pyrazol-3-yl)-1-oxoisoindolin-2-yl)piperidine-2,6-dione] | C (C = 0-10% remaining) | < 25 nM | D (0-10% remaining) | < 10 nM | – | – | ≥ 25 nM | F (F = >75-100% remaining) |
| Cn1nc(-c2ccc3c(c2)CN(C2CCC(=O)NC2=O)C3=O)nc1-c1ccc(Cl)cc1 (stereo not drawn) [Example 622, 3-(5-(5-(4-chlorophenyl)-1-methyl-1H-1,2,4-triazol-3-yl)-1-oxoisoindolin-2-yl)piperidine-2,6-dione] | D (D = >10- 25% remaining) | < 25 nM | E (>10-25% remaining) | 10 to 100 nM | – | – | ≥ 25 nM | E (E = >25-75% remaining) |
| Cn1ncc(-c2ccc3c(c2)CN(C2CCC(=O)NC2=O)C3=O)c1C1CCCC1 (stereo not drawn) [Example 692] | E (E = >25-75% remaining) | ≥ 25 nM | E (>10-25% remaining) | 100 to 500 nM | – | – | ≥ 25 nM | F (F = >75-100% remaining) |
| O=C1CCC(N2Cc3cc(-c4nc(-c5ccccc5)n(C(F)F)n4)ccc3C2=O)C(=O)N1 (stereo not drawn) [Example 703, 3-(5-(1-(difluoromethyl)-5-phenyl-1H-1,2,4-triazol-3-yl)-1-oxoisoindolin-2-yl) piperidine-2,6-dione] | D (D = >10- 25% remaining) | < 25 nM | E (>10-25% remaining) | 10 to 100 nM | ≥ 25 nM | F (F = >75-100% remaining) | – | – |
| O=C1CCC(N2Cc3cc(-c4nc(-c5ccccc5)n(C5CC5)n4)ccc3C2=O)C(=O)N1 (stereo not drawn) [Example 705, 3-(5-(1-cyclopropyl-5-phenyl-1H-1,2,4-triazol-3-yl)-1-oxoisoindolin-2-yl)piperidine-2,6-dione] | C (C = 0-10% remaining) | < 25 nM | E (>10-25% remaining) | 10 to 100 nM | < 25 nM | F (F = >75-100% remaining) | – | – |
| O=C1CCC(N2Cc3cc(-c4cc(-c5ccccc5)n(CC(F)(F)F)n4)ccc3C2=O)C(=O)N1 (stereo not drawn) [Example 710, 3-(1-oxo-5-(5-phenyl-1-(2,2,2-trifluoroethyl)-1H-pyrazol-3-yl)isoindolin-2-yl)piperidine-2,6-dione] | C (C = 0-10% remaining) | < 25 nM | E (>10-25% remaining) | < 10 nM | – | – | < 25 nM | F (F = >75-100% remaining) |
| Cn1nc(-c2ccc3c(c2)CN(C2CCC(=O)NC2=O)C3=O)cc1-c1ccc(Cl)cc1 (stereo not drawn) [Example 717, 3-(5-(5-(4-chlorophenyl)-1-methyl-1H-pyrazol-3-yl)-1-oxoisoindolin-2-yl)piperidine-2,6-dione] | D (D = >10- 25% remaining) | < 25 nM | E (>10-25% remaining) | 10 to 100 nM | – | – | ≥ 25 nM | F (F = >75-100% remaining) |
| CC(C)c1nc(-c2ccc3c(c2)CN(C2CCC(=O)NC2=O)C3=O)c(-c2ccccc2)n1C (stereo not drawn) [Example 726, 3-(5-(2-isopropyl-1-methyl-5-phenyl-1H-imidazol-4-yl)-1-oxoisoindolin-2-yl)piperidine-2,6-dione] | C (C = 0-10% remaining) | < 25 nM | D (0-10% remaining) | < 10 nM | – | – | ≥ 25 nM | F (F = >75-100% remaining) |
| CC(C)c1nc(-c2ccc3c(c2)CN(C2CCC(=O)NC2=O)C3=O)cn1-c1ccccc1 (stereo not drawn) [Example 728, 3-(5-(2-isopropyl-1-phenyl-1H-imidazol-4-yl)-1-oxoisoindolin-2-yl)piperidine-2,6-dione] | C (C = 0-10% remaining) | < 25 nM | E (>10-25% remaining) | < 10 nM | – | – | ≥ 25 nM | F (F = >75-100% remaining) |
| Cc1cn(-c2ccccc2)c(-c2ccc3c(c2)CN(C2CCC(=O)NC2=O)C3=O)n1 (stereo not drawn) [Example 729, 3-(5-(4-methyl-1-phenyl-1H-imidazol-2-yl)-1-oxoisoindolin-2-yl)piperidine-2,6-dione] | C (C = 0-10% remaining) | < 25 nM | D (0-10% remaining) | < 10 nM | – | – | < 25 nM | E (E = >25-75% remaining) |
